Reference: patent US9486394B2, “Pharmaceutical foam” (STIEFEL WEST COAST, LLC, priority 2003, dated 2016)

Experiments:
[1] = Stability, citrate buffer pH, epoxy-phenolic lined cans (Example 1); conditions: 1 month
Experimental: In this study, a citrate buffer solution was used to adjust the pH of the mixture to pH 4.5, pH 5.5, and pH 6.5 using four different buffer concentrations (i.e., 0, 0.1, 0.3, 0.5%) and two alternative emollients or humectants, i.e., propylene glycol and glycerin. The containers were stored at 50° C. for 1 month and then examined.

[2] = Stability with different can linings (Example 2); assay type: physicochemical; conditions: 4 weeks
Experimental: Low buffer levels at a pH of 4.5 or 6.5, including unbuffered pH 4.5, were tested in cans with either epoxy-phenolic, polyamide-imide (PAM), or Micoflex linings. Some of the PAM-lined cans were scratched internally to check for corrosion on bare aluminum. Cans were stored at 4° C., 40° C., and 50° C. for 4 weeks and then examined.

CCC[C@@H]1C[C@@H](C(=O)N[C@@H]([C@H]2O[C@H](SC)[C@H](OP(=O)(O)O)[C@@H](O)[C@H]2O)[C@H](C)Cl)N(C)C1 [clindamycin phosphate]
clindamycin phosphate degradation at higher buffer levels ([1]; citrate buffer 0.5%, 0.3% vs 0.1%, 0.0%, 50° C.): higher amount of clindamycin phosphate degradation | stability of clindamycin phosphate as a function of pH ([1]; pH 4.5, 5.5, 6.5, 50° C., FIG. 3): more stable at a lower pH level | clindamycin phosphate stability in PAM-lined container ([2]; FIG. 4): unexpectedly high | degradation of clindamycin phosphate ([2]; 40° C.): moderate degradation | degradation of clindamycin phosphate ([2]; 50° C.): relatively severe degradation
